Reference: ChEMBL document CHEMBL3045765, “Quantitative structure-fungitoxicity relationships of some monohydric alcohols” (J Agric Food Chem, 2003)

Experiments:
[1] = tested on: Colletotrichum gloeosporioides; assay: Fungitoxicity against Colletotrichum gloeosporioides assessed as mycelial growth inhibition by poisoned food technique; type: functional, organism-based; conditions: for minimal effective concentration: read-out: MEC
[2] = tested on: Colletotrichum gloeosporioides; assay: Fungitoxicity against Colletotrichum gloeosporioides assessed as mycelial growth inhibition at 1200 mg/L by poisoned food technique; type: functional; conditions: read-out: GI

SMILES | EC50 ([1]; read-out: EC50) | EC50 ([1]; read-out: pEC50 (converted)) | minimal effective concentration [1] | inhibition of growth at 1200 µg/mL [2]
C=C[C@H](O)CCCCC | 1290 µg/mL | 10 mM | – | –
CCCCCCCO [1-HEPTANOL] | 546 µg/mL | 4.68 mM | 182 µg/mL | –
CCCCCCO [1-HEXANOL] | 1270 µg/mL | 12 mM | 772 µg/mL | –
CCCCCO [1-PENTANOL] | 2130 µg/mL | 24 mM | 712 µg/mL | –
CC(C)CCO [3-METHYLBUTANOL] | 3710 µg/mL | 41.7 mM | – | –
CC(C)[C@@H]1CC[C@@H](C)C[C@@H]1O [(+) NEOMENTHOL] | 488 µg/mL | 3.09 mM | – | –
CCO [ALCOHOL] | 17700 µg/mL | – | 5490 µg/mL | –
OCc1ccccc1 [BENZYL ALCOHOL] | 1180 µg/mL | 11 mM | – | –
CCCCO [BUTYL ALCOHOL] | 3690 µg/mL | 50.1 mM | 910 µg/mL | –
CCCCCCCCCCCCCCCCCCO [CETOSTEARYL ALCOHOL] | > 225 µg/mL | > 1.26 mM | > 225 µg/mL | –
CCCCCCCCCCCCCCCCO [CETYL ALCOHOL] | > 1200 µg/mL | > 5.25 mM | – | 5%
CC(C)=CCCC(C)CCO (stereo unspecified) [CITRONELLOL] | 84 µg/mL | 0.537 mM | – | –
CCCCCCCCCCO [DECANOL] | 112 µg/mL | 0.708 mM | 52 µg/mL | –
CC(C)=CCC/C(C)=C/CO [GERANIOL] | 100 µg/mL | 0.646 mM | – | –
CC(C)CO [ISOBUTANOL] | 8200 µg/mL | – | – | –
CC(C)O [ISOPROPYL ALCOHOL] | 18200 µg/mL | – | – | –
C=CC(C)(O)CCC=C(C)C (stereo unspecified) [LINALOOL] | 1090 µg/mL | 7.08 mM | – | –
CC1CCC(C(C)C)C(O)C1 (stereo unspecified) [MENTHOL] | 452 µg/mL | 2.88 mM | – | –
CO [METHYL ALCOHOL] | 24700 µg/mL | – | 8000 µg/mL | –
CCCCCCCCO [OCTANOL] | 298 µg/mL | 2.29 mM | 87 µg/mL | –
OCCc1ccccc1 [PHENYLETHYL ALCOHOL] | 1000 µg/mL | 8.13 mM | – | –
CCCO [PROPANOL] | 8980 µg/mL | – | 4430 µg/mL | –
CC(C)(C)O [TERT-BUTANOL] | 17100 µg/mL | – | – | –
